Source: US10517889B2, “Modulators of SMAD7 expression” (Ionis Pharmaceuticals, Inc., priority 2017, dated 2019)
Strand notation (5' to 3'): a small letter for the sugar, then the base; units joined by * are phosphorothioate-linked, units joined directly phosphodiester-linked; [ ] holds rarer units or linkages, { } end groups; capitals alone tell only the bases. k = constrained ethyl (cEt); [5mC] = 5-methylcytosine; d = 2'-deoxy (DNA)

system: human SMAD7 mRNA; assay: Antisense inhibition of human SMAD7 mRNA expression in Hep3B cells by 3-10-3 cEt gapmers, 10,000 nM, electroporation (Example 2); format: cell-based; details: Hep3B cells, 10,000 nM antisense oligonucleotide, electroporation, approximately 24 hours, RT-PCR primer probe set RTS5062, relative to untreated control cells
Procedure, shortened: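 Hep3B, 20,000 cells/well; electroporation, 10,000 nM ASO; ~24 h. Readout: SMAD7 mRNA by qRT-PCR (RTS5062), RIBOGREEN-normalised; % inhibition vs untreated.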

Substance	% Inhibition
800078 (antisense kA*k[5mC]*k[5mC]*dT*dT*dA*dA*d[5mC]*dA*dA*dA*dG*d[5mC]*kT*kT*k[5mC]) [compound 800078]	51%
798835 (k[5mC]*kG*kA*dG*dG*d[5mC]*dA*dA*dA*dA*dG*d[5mC]*d[5mC]*kA*kT*kT; antisense) [compound 798835]	22%
800053 (antisense k[5mC]*kT*kA*d[5mC]*dA*d[5mC]*d[5mC]*dA*dA*dA*dG*dA*d[5mC]*k[5mC]*kT*kG) [compound 800053]	63%
798890 (k[5mC]*kT*kT*d[5mC]*dA*d[5mC]*dA*dA*dA*dG*d[5mC]*dT*dG*kA*kT*k[5mC]; antisense) [compound 798890]	40%
799917 (antisense kT*kG*kG*dA*dG*dA*dA*dT*dG*dT*dA*dA*dT*kT*kG*kA) [compound 799917]	17%
772633 (kG*kG*kT*d[5mC]*dA*dT*dT*dG*dG*dG*d[5mC]*d[5mC]*dG*k[5mC]*kT*kG; antisense) [compound 772633]	37%

same assay, conditions: Hep3B cells, electroporation with 10,000 nM antisense oligonucleotide, approximately 24 hours, RTS5062, percent inhibition of SMAD7 mRNA relative to untreated control cells

Substance	% Inhibition
799567 (k[5mC]*kT*kT*dT*dG*dA*dG*dT*dA*dA*dA*d[5mC]*dA*kA*kT*kA; antisense) [compound 799567]	15%
799707 (antisense kA*kA*kA*d[5mC]*dT*dT*dG*dT*dG*dG*dT*dA*dA*kA*kA*kT) [compound 799707]	38%
799730 (antisense kT*kA*kA*dA*dT*dT*dG*dA*dG*dA*dA*d[5mC]*dT*kG*kT*kG) [compound 799730]	60%
799628 (kA*k[5mC]*kA*d[5mC]*dA*d[5mC]*dA*d[5mC]*dA*dA*dG*d[5mC]*dT*kT*kG*k[5mC]; antisense) [compound 799628]	38%

same assay, conditions: Hep3B cells, electroporation with 10,000 nM antisense oligonucleotide, approximately 24 hours, SMAD7 mRNA by RT-PCR (RTS5062), relative to untreated control cells

Substance	% Inhibition
799455 (antisense kT*kG*kT*dT*dA*dA*dA*dG*dA*d[5mC]*dA*dG*dA*kG*kG*kA) [compound 799455]	55%
830150 (antisense k[5mC]*kA*kG*dT*dG*dG*dT*dG*dA*d[5mC]*d[5mC]*dT*d[5mC]*k[5mC]*k[5mC]*kT) [compound 830150]	51%
830115 (kA*k[5mC]*k[5mC]*d[5mC]*dT*dA*dA*dA*d[5mC]*dT*dG*dA*dG*k[5mC]*k[5mC]*k[5mC]; antisense) [compound 830115]	9%
800068 (antisense kA*k[5mC]*kA*d[5mC]*dT*dA*dA*d[5mC]*dT*dG*dG*d[5mC]*dT*k[5mC]*k[5mC]*kA) [compound 800068]	34%
798756 (k[5mC]*kG*k[5mC]*d[5mC]*d[5mC]*d[5mC]*d[5mC]*dG*dG*dG*d[5mC]*d[5mC]*d[5mC]*kA*kG*k[5mC]; antisense) [compound 798756]	16%
830036 (antisense kT*kA*kT*dT*dG*dG*d[5mC]*dT*dG*dA*dT*d[5mC]*dT*kG*kG*kA) [compound 830036]	52%
798783 (k[5mC]*kG*kG*d[5mC]*dT*dA*dA*dG*dG*dT*dG*dA*dT*kG*kG*kG; antisense) [compound 798783]	45%
830175 (antisense kT*k[5mC]*kT*d[5mC]*dA*dA*d[5mC]*dA*dG*dA*d[5mC]*d[5mC]*dA*k[5mC]*kA*k[5mC]) [compound 830175]	44%
798714 (antisense kG*kG*k[5mC]*d[5mC]*dG*d[5mC]*d[5mC]*dG*d[5mC]*d[5mC]*dA*d[5mC]*d[5mC]*kG*kG*k[5mC]) [compound 798714]	0%
798680 (antisense k[5mC]*kA*kT*dG*dA*d[5mC]*d[5mC]*dT*d[5mC]*d[5mC]*dG*d[5mC]*dA*k[5mC]*kA*k[5mC]) [compound 798680]	31%
772610 (kG*kG*k[5mC]*dA*dA*dA*dA*dG*d[5mC]*d[5mC]*dA*dT*dT*k[5mC]*k[5mC]*k[5mC]; antisense) [compound 772610]	34%
799468 (antisense kT*k[5mC]*kA*d[5mC]*d[5mC]*dT*dT*dA*dG*dG*d[5mC]*d[5mC]*dT*kG*kT*kG) [compound 799468]	22%

same assay, conditions: Hep3B cells, electroporation with 10,000 nM antisense oligonucleotide, approximately 24 hours, primer probe set RTS5062, relative to untreated control cells

Substance	% Inhibition	% inhibition of SMAD7 mRNA expression
799099 (antisense kA*kA*kA*dA*dA*d[5mC]*d[5mC]*dT*dG*dA*dT*dG*dT*k[5mC]*kA*k[5mC]) [compound 799099]	44%	–
799088 (antisense kG*k[5mC]*kT*dG*d[5mC]*d[5mC]*d[5mC]*d[5mC]*dG*dG*d[5mC]*dA*dG*k[5mC]*k[5mC]*k[5mC]) [compound 799088]	–	24%
799055 (antisense kG*k[5mC]*kT*d[5mC]*dA*dG*dA*dA*dG*d[5mC]*d[5mC]*dT*dG*kT*kG*kG) [compound 799055]	19%	–
799069 (antisense kA*kT*kA*dA*dG*dA*d[5mC]*dA*dA*dG*dG*dA*dT*kG*kA*kA) [compound 799069]	–	18%
790623 (kG*k[5mC]*kA*dT*dT*dT*dA*dT*dA*dT*dT*dA*dA*kA*kG*k[5mC]; antisense) [compound 790623]	–	0%
799179 (antisense kA*kA*kT*dA*dG*d[5mC]*dT*dT*dA*dT*dG*dT*dT*kA*kA*kA) [compound 799179]	0%	–
798704 (antisense k[5mC]*kT*kG*dT*d[5mC]*d[5mC]*dG*dT*d[5mC]*dG*d[5mC]*d[5mC]*d[5mC]*k[5mC]*kT*kT) [compound 798704]	–	61%
798964 (antisense k[5mC]*k[5mC]*k[5mC]*dT*dT*d[5mC]*dT*dT*d[5mC]*d[5mC]*dA*dA*dA*kA*kA*kA) [compound 798964]	–	32%
798691 (antisense k[5mC]*kG*k[5mC]*dA*d[5mC]*dG*dG*d[5mC]*dT*d[5mC]*d[5mC]*dT*d[5mC]*k[5mC]*kA*kG) [compound 798691]	–	42%
799437 (antisense k[5mC]*k[5mC]*kA*dG*dA*dT*d[5mC]*dT*d[5mC]*dA*dG*dG*dT*k[5mC]*kA*kA) [compound 799437]	–	26%
798808 (kG*kG*kA*dA*dT*d[5mC]*dT*dG*dA*dA*dA*dG*d[5mC]*k[5mC]*k[5mC]*k[5mC]; antisense) [compound 798808]	–	44%
772702 (k[5mC]*kG*kT*d[5mC]*dT*dT*dT*dA*dT*dA*dT*dT*dT*kA*k[5mC]*kA; antisense) [compound 772702]	23%	–
772555 (antisense kA*kG*kG*d[5mC]*dA*d[5mC]*dG*d[5mC]*dG*dG*dT*dG*d[5mC]*kG*k[5mC]*kG) [compound 772555]	–	23%

same assay, conditions: Hep3B cells, electroporation, 10,000 nM antisense oligonucleotide, approximately 24 hours, RTS5062, relative to untreated control cells

Substance	% inhibition of SMAD7 mRNA expression
799739 (antisense k[5mC]*kA*k[5mC]*d[5mC]*d[5mC]*d[5mC]*dT*dA*dT*d[5mC]*dA*dA*dA*kA*kA*kA) [compound 799739]	0%
799579 (kA*kA*k[5mC]*d[5mC]*dT*dT*d[5mC]*d[5mC]*dG*dA*dA*dA*dG*kG*kA*k[5mC]; antisense) [compound 799579]	51%
799504 (antisense kA*kG*kG*dA*dA*dA*dG*dG*dT*dG*d[5mC]*dT*dG*k[5mC]*k[5mC]*k[5mC]) [compound 799504]	15%
799814 (antisense k[5mC]*k[5mC]*kT*d[5mC]*dA*d[5mC]*dT*dT*dA*dG*d[5mC]*d[5mC]*dT*kG*k[5mC]*kA) [compound 799814]	0%
799773 (k[5mC]*kG*k[5mC]*dT*dA*dG*dG*dT*d[5mC]*dA*d[5mC]*dA*d[5mC]*kT*k[5mC]*kA; antisense) [compound 799773]	43%

same assay, conditions: SMAD7 mRNA, Hep3B cells, 10,000 nM antisense oligonucleotide, electroporation, approximately 24 hours, primer probe set RTS5062, relative to untreated control cells

Substance	% Inhibition
829729 (antisense kA*kG*kG*d[5mC]*dG*d[5mC]*dA*dG*dG*d[5mC]*dG*dA*d[5mC]*kA*kG*k[5mC]) [compound 829729]	66%
829753 (antisense kT*k[5mC]*k[5mC]*d[5mC]*d[5mC]*dG*d[5mC]*dA*dG*d[5mC]*dT*d[5mC]*dG*k[5mC]*k[5mC]*kT) [compound 829753]	29%
790697 (kA*kT*kT*d[5mC]*dA*dG*dG*dG*dT*dG*dT*d[5mC]*dA*kG*k[5mC]*k[5mC]; antisense) [compound 790697]	59%

same assay, conditions: SMAD7 mRNA, Hep3B cells, electroporation with 10,000 nM antisense oligonucleotide, approximately 24 hours, primer probe set RTS5062, relative to untreated control cells

Substance	% Inhibition
829851 (antisense k[5mC]*kT*kT*dG*dT*dT*dG*dT*d[5mC]*d[5mC]*dG*dA*dA*kT*kT*kG) [compound 829851]	31%
829889 (antisense k[5mC]*kG*kT*d[5mC]*d[5mC]*dA*d[5mC]*dG*dG*d[5mC]*dT*dG*d[5mC]*kT*kG*k[5mC]) [compound 829889]	48%
829861 (antisense k[5mC]*k[5mC]*kA*dT*d[5mC]*d[5mC]*dA*d[5mC]*d[5mC]*dT*d[5mC]*d[5mC]*d[5mC]*kG*k[5mC]*kG) [compound 829861]	35%
829953 (kG*kT*k[5mC]*dA*d[5mC]*d[5mC]*d[5mC]*dG*dT*d[5mC]*dT*dG*dG*kG*k[5mC]*kT; antisense) [compound 829953]	34%
829951 (kG*k[5mC]*kT*d[5mC]*d[5mC]*dG*dG*dG*d[5mC]*dA*dG*d[5mC]*d[5mC]*kA*kG*kT; antisense) [compound 829951]	10%
